Source: patent publication US20200157508A1, “SYSTEMS AND METHODS FOR GROWTH OF INTESTINAL CELLS” (CEDARS-SINAI MEDICAL CENTER, priority 2017, published 2020)

How the values were obtained:
Caco2 cells [1] = assay: Western blot of STAT1 phosphorylation in Caco2 Chip exposed to IFNγ; assay type: cell-based; settings: 10-1000 ng/ml in lower channel for one hour
Description: (§1) FIG. 3. a) Western blot analysis showing phosphorylation of STAT1 in Chips containing either HIO-derived intestinal epithelial or Caco2 cells in response to exposure of increasing concentrations (0-1000 ng/ml) of IFNγ in the lower channel for 1 hour. Both GAPDH and STAT1 were used as loading controls. Image J analysis was used to quantify levels of phosphorylation of STAT1 compared to GAPDH b) Quantitative reverse transcription-polymerase chain reaction analyses of IDO1 and GBP1 and c) PLA2G2a, Muc4, lysozyme, Reg3γin Chips incorporating either HIO-derived epithelial or Caco2 cells in response to exposure of 10 ng/ml of IFNγ in the lower channel for 3 days. Three independent experiments were carried out; data represent mean and s.e.m; *P<0.05, **P<0.01 compared to respective untreated controls. […] Two independent experiments were carried out; data represent mean±SEM. **P<0.01. AUC, area under the curve; CTL, control; GAPDH, glyceraldehyde-3-phosphate dehydrogenase.
(§2) PBS was flushed through both the upper and lower channels and total protein was extracted in situ using cell lysis buffer (Cell Signaling cat #9803s) supplemented with protease and […] inhibitor (Sigma, # MSSAFE). Protein concentration was then determined and equal amounts of protein lysates were heat denatured and separated on a 10% mini-protean precast gel (Bio-Rad, #456-8034). […]

[2] = tested on: HIO-derived epithelial cells; assay: qRT-PCR gene expression in Intestine-Chip exposed to IFNγ; assay type: cell-based, human
Description: as §1
(§3) PBS was flushed through both the upper and lower channels and total RNA from the Intestine-Chip was extracted in situ with the RNeasy mini kit (Qiagen, USA). cDNA was generated from 1 μg of RNA using the Omniscript RT Kit (Qiagen). qRT-PCR was performed using SYBR® Select Master Mix (Applied Biosystems) on a BioRad CFX384 Real-Time System. Primer sequences as follows:
(§4) As Caco2 cells are routinely used to assess intestinal epithelial responses and have previously been incorporated into Chips, the Inventors also included these in the Inventors' studies to directly compare the Intestine-Chip. […] Thus both cell types were incubated with 10 ng/ml of IFNγ for 3 days and assessed for upregulation of indoleamine 2 3-dioxygenase (IDO1) and guanylate binding protein 1 (GBP1).

Caco2 cells [3] = assay: qRT-PCR gene expression in Caco2 Chip exposed to IFNγ; assay type: cell-based; settings: 10 ng/ml for 3 days
Description: as §1, §3, §4

[4] = tested on: HIO-derived intestinal epithelial cells; assay: Western blot of STAT1 phosphorylation in Intestine-Chip exposed to IFNγ; assay type: cell-based, human; settings: 10-1000 ng/ml in lower channel for one hour
Description: as §1, §2

[5] = 10 ng/ml in lower channel for 3 days
[6] = attenuated in comparison to HIO-epithelial cells

Substance: IFNγ: a cytokine known to be upregulated in IBD
- phosphorylation of STAT1 (Caco2 cells [1]): robust phosphorylation of STAT1
- Muc4 expression ([2]; 10 ng/ml for 3 days): significant upregulation
- PLA2G2a expression ([2]; 10 ng/ml for 3 days): significant upregulation
- Reg3γ expression ([2]; 10 ng/ml for 3 days): no differences
- lysozyme expression ([2]; 10 ng/ml for 3 days): no differences
- GBP1 expression vs controls [2, 5]: significant increase
- IDO1 expression vs controls [2, 5]: significant increase
- expression of PLA2G2a, Muc4, lysozyme, Reg3γ (Caco2 cells [3]): did not observe any significant upregulation
- GBP1 expression vs controls (Caco2 cells [3]; [6]): significant upregulation
- IDO1 expression vs controls (Caco2 cells [3]; [6]): significant upregulation
- phosphorylation of STAT1 [4]: robust phosphorylation of STAT1
